Entries after “also recorded” stand apart in the source; their conditions may differ. Where two headings read alike, the source gives them in different places.
Experiments:
[1] = system: P. aeruginosa PA27853/PLL-EGFP
P. aeruginosa PAO1 = assay type: cell-based, Pseudomonas aeruginosa
[2] = system: PA-I lectin/adhesin expression in P. aeruginosa; assay type: cell-based, Pseudomonas aeruginosa
[3] = system: intestinal epithelial cells; conditions: 0.6% solution; cited from earlier work
Endothelial cells = test: Pretreatment of endothelial cells followed by S1P or HMW PEG challenge (TEER); assay type: cell-based; conditions: 100 nM PMA; baseline 1250 ohm
[4] = system: mice inoculated with PA27853; test: Mice with slow release morphine pellets drinking PA27853
[5] = system: P. aeruginosa (strain PAO1) whole cells and membrane fractions; assay type: binding, Pseudomonas aeruginosa
[6] = target: protein on the surface of whole cells of P. aeruginosa (strain PAO1)
[7] = system: human lung microvessel endothelial cells (HLMVEC); test: Transendothelial electrical resistance (TEER) by ECIS, HMW PEG in serum-free EBM; assay type: cell-based; conditions: thrombin 1 U/ml, control cells
HPAECs = test: Intracellular calcium (Fura-2); assay type: cell-based, human; conditions: 1 U/ml thrombin; 1 μM S1P
MDCK monolayers = test: Purified PA-I on epithelial monolayers (TEER, exotoxin A flux); assay type: cell-based

Nc1ncnc2c1ncn2[C@@H]1O[C@H](COP(=O)(O)OP(=O)(O)O)[C@@H](O)[C@H]1O [ADP]
PA-I promoter activity / expression (fluorescence) [1]: no evident inducing effects

Nc1ncnc2c1ncn2[C@@H]1O[C@H](COP(=O)(O)O)[C@@H](O)[C@H]1O [AMP]
PA-I promoter activity / expression (fluorescence) [1]: no evident inducing effects

Nc1ncnc2c1ncn2[C@@H]1O[C@H](COP(=O)(O)OP(=O)(O)OP(=O)(O)O)[C@@H](O)[C@H]1O [ATP]
PA-I promoter activity / expression (fluorescence) [1]: no evident inducing effects

CCCC(=O)N[C@H]1CCOC1=O [C4-HSL, C4-homoserine lactone]
PCN production in mvfR mutants (P. aeruginosa PAO1): none of these mutants produced PCN
bacterial growth in TSB media (P. aeruginosa PAO1): Neither compound had an effect on bacterial growth
cell density at onset of PCN production (P. aeruginosa PAO1): a shift in the production of PCN to lower cell densities
PA-I expression in vitro [2]: induced PA-I expression
induction of PA-I mRNA (Northern blot) [2]: Induction of PA-I mRNA was observed

C[C@@H](O)C(=O)O [D-lactate]
PA-I promoter activity / expression (fluorescence) [1]: had no effect on PA-I promoter activity

CC(=O)N[C@H]1C(O)O[C@H](CO)[C@H](O)[C@@H]1O (stereo partly drawn) [GalNAc, N-acetyl-D-galactosamine]
adhesion of P. aeruginosa to intestinal epithelial cells [3]: markedly decreased adhesion to intestinal epithelial cells

C[C@H](O)C(=O)O [L-lactate]
PA-I promoter activity / expression (fluorescence) [1]: had no effect on PA-I promoter activity

COC(=O)c1ccccc1N [MA, methyl anthranilate]
ability of U-50,488 to enhance PCN production (P. aeruginosa PAO1): inhibited the ability of U-50,488 to enhance PCN production; also recorded: attenuated the ability of U-50,488 to enhance PCN production

Oc1ccc2c3c1O[C@H]1c4[nH]c5c(c4C[C@@]4(O)[C@@H](C2)N(CC2CC2)CC[C@]314)C[C@@]1(O)[C@H]2Cc3ccc(O)c4c3[C@@]1(CCN2CC1CC1)[C@H]5O4 [NOR, nor-binaltorphimine]
U-50,488-enhanced PCN production (P. aeruginosa PAO1): completely inhibited enhanced PCN production

CCCCCCCCCCCCCC(=O)O[C@@H]1[C@@H](C)[C@@]2(O)[C@@H](C=C(CO)C[C@]3(O)C(=O)C(C)=C[C@@H]23)[C@@H]2C(C)(C)[C@]12OC(C)=O [PMA]
time for TEER increase to return to baseline (Endothelial cells): 8 h

OC[C@H]1O[C@@H](n2cnc3c(O)ncnc32)[C@H](O)[C@@H]1O [inosine]
timing of PA-I induction compared to adenosine [1]: induced PA-I expression at an earlier time point and at lower cell densities (OD) compared to adenosine
concentration inducing PA-I expression relative to adenosine ([1]; less than adenosine): 10 fold

OC[C@H]1O[C@H](OCC2O[C@@H](O)[C@H](O)[C@@H](O)[C@@H]2O)[C@H](O)[C@@H](O)[C@H]1O (stereo partly shown) [mellibiose]
adhesion of P. aeruginosa to intestinal epithelial cells [3]: markedly decreased adhesion to intestinal epithelial cells

CN1CC[C@]23c4c5ccc(O)c4O[C@H]2[C@@H](O)C=C[C@H]3[C@H]1C5 [morphine]
mortality ([4]; PA27853): significant mortality
mice developing severe sepsis ([4]; PA27853 1×10^8 cfu/ml daily): 4/4
increase in PA-I mRNA [2]: four-fold increase
increase in PA-I mRNA ([2]; PA27853, morphine 13 μM, quantitative RT-PCR): 4 fold

NC[C@H](O)c1ccc(O)c(O)c1 [norepinephrine]
PA-I expression in vitro [2]: did not change PA-I expression; also recorded: PA-I expression was not affected by this compound

EGF: human cytokine tested for membrane binding
binding to P. aeruginosa cells / cell membranes (ELISA) [5]: No binding was observed

IL-4: human cytokine
binding to P. aeruginosa cells / cell membranes (ELISA) [5]: No binding was observed

IL-10: human cytokine
binding to P. aeruginosa cells / cell membranes (ELISA) [5]: No binding was observed

TGF-β
binding to P. aeruginosa cells / cell membranes (ELISA) [5]: No binding was observed

dynorphin
PCN production (P. aeruginosa PAO1): enhanced PCN production in a dose-dependent manner

recombinant human IFN-γ (rH IFN-γ) (from UniProt P01579 24-166) (ligand)
percent of bacterial cells that bound IFN-γ [6]: 73%

thrombin
decrease in resistance [7]: over 50%
maximum decrease in resistance [7]: approximately 1200 ohm
intracellular calcium on stimulation of ECs (HPAECs): induced intracellular calcium spikes

B1: PA-I: purified lectin/adhesin of P. aeruginosa, four 13 kDa subunits, binds D-galactose (protein, UniProt Q05097 2-122, looked up)
PA-I galactophilic lectin: AWKGEVLANNEAGQVTSIIYNPGDVITIVAAGWASYGPTQKWGPQGDREHPDQGLICHDAFCGALVMKIGNSGTIPVNTGLFRWVAPNNVQGAITLIYNDVPGTYGNNSGSFSVNIGKDQS
TEER of epithelial cells (MDCK monolayers; purified PA-I): decreased the TEER of epithelial cells to the same degree as P. aeruginosa
increase in exotoxin A flux across MDCK cells (MDCK monolayers; when TEER decreased below 50% of control by pure PA-I protein): five-fold increase

B2: adenosine deaminase: enzyme added to deplete the media of adenosine (protein, UniProt P00813 2-363, looked up)
Adenosine deaminase: AQTPAFDKPKVELHVHLDGSIKPETILYYGRRRGIALPANTAEGLLNVIGMDKPLTLPDFLAKFDYYMPAIAGCREAIKRIAYEFVEMKAKEGVVYVEVRYSPHLLANSKVEPIPWNQAEGDLTPDEVVALVGQGLQEGERDFGVKARSILCCMRHQPNWSPKVVELCKKYQQQTVVAIDLAGDETIPGSSLLPGHVQAYQEAVKSGIHRTVHAGEVGSAEVVKEAVDILKTERLGHGYHTLEDQALYNRLRQENMHFEICPWSSYLTGAWKPDTEHAVIRLKNDQANYSLNTDDPLIFKSTLDTDYQMTKRDMGFTEEEFKRLNINAAKSSFLPEDEKRELLDLLYKAYGMPPSASAGQNL
PA-I expression after depletion of adenosine from HIF-1-α activated Caco-2 media ([1]; Caco-2): even greater increase in PA-I expression
